Results taken from the supplement of paper PMC8671470.
Counter-ions that a name gives are not always drawn.

These compounds were tested on BV-173 (assay: cell viability (% survival relative to DMSO control); higher = less cytotoxic). Details: drug1 concentration 5 nM; drug2 concentration 1000 nM; 72 h.
Protocol: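 8x8 drug-combination matrices (0–5000 nM; rosiglitazone and lestaurtinib 0–1000 nM) were run in BV-173 cells for 72 h with CellTiter-Glo read-out. Survival is normalised to DMSO and 10 µM bortezomib and clipped at 100%.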
With `CN(CCOc1ccc(Cc2sc(O)nc2O)cc1)c1ccccn1` [Rosiglitazone] + CC(C)(Cc1ccccc1)NCC(O)c1ccc(O)c(NS(C)(=O)=O)c1 [Zinterol hydrochloride] the cell viability was 89.5%.
For `CN(CCOc1ccc(Cc2sc(O)nc2O)cc1)c1ccccn1` [Rosiglitazone] + c1cc(-c2cnn3cc(-c4ccc(OCCN5CCCCC5)cc4)cnc23)ccn1 [Dorsomorphin], the cell viability was greater than 100%.

Same assay, conditions: drug1 concentration 5 nM; drug2 concentration 5000 nM; 72 h
With `O=C(O)CC[N+](=O)[O-]` [3-nitropropionic acid] + CCn1c(=Cc2cccc[n+]2CC)sc(=C2Sc3ccccc3N2C)c1=O [MKT 077] the cell viability was greater than 100%.
For `CCn1c(=Cc2cccc[n+]2CC)sc(=C2Sc3ccccc3N2C)c1=O` [MKT 077] + CN(C)CCNC(=O)c1cccn2c(=O)c3cc4ccccc4cc3nc12 [Bmh-21], the cell viability was 0.22%.
In the case of `CN(CCOc1ccc(Cc2sc(O)nc2O)cc1)c1ccccn1` [Rosiglitazone] + CC(C)(Cc1ccccc1)NCC(O)c1ccc(O)c(NS(C)(=O)=O)c1 [Zinterol hydrochloride], the cell viability is reported as greater than 100%.
`CN(CCOc1ccc(Cc2sc(O)nc2O)cc1)c1ccccn1` [Rosiglitazone] + c1cc(-c2cnn3cc(-c4ccc(OCCN5CCCCC5)cc4)cnc23)ccn1 [Dorsomorphin] gave a cell viability of 85%.

Same assay, conditions: drug1 concentration 10 nM; drug2 concentration 5 nM; 72 h
With `O=C(O)CC[N+](=O)[O-]` [3-nitropropionic acid] + CCn1c(=Cc2cccc[n+]2CC)sc(=C2Sc3ccccc3N2C)c1=O [MKT 077] the cell viability was 78.6%.
`CCn1c(=Cc2cccc[n+]2CC)sc(=C2Sc3ccccc3N2C)c1=O` [MKT 077] + CN(C)CCNC(=O)c1cccn2c(=O)c3cc4ccccc4cc3nc12 [Bmh-21] gave a cell viability greater than 100%.
`CN(CCOc1ccc(Cc2sc(O)nc2O)cc1)c1ccccn1` [Rosiglitazone] + CC(C)(Cc1ccccc1)NCC(O)c1ccc(O)c(NS(C)(=O)=O)c1 [Zinterol hydrochloride] showed a cell viability greater than 100%.
With `CN(CCOc1ccc(Cc2sc(O)nc2O)cc1)c1ccccn1` [Rosiglitazone] + c1cc(-c2cnn3cc(-c4ccc(OCCN5CCCCC5)cc4)cnc23)ccn1 [Dorsomorphin] the cell viability was greater than 100%.

Same assay, conditions: drug1 concentration 10 nM; drug2 concentration 10 nM; 72 h
`O=C(O)CC[N+](=O)[O-]` [3-nitropropionic acid] + CCn1c(=Cc2cccc[n+]2CC)sc(=C2Sc3ccccc3N2C)c1=O [MKT 077] was tested, and the cell viability was greater than 100%.
With `CCn1c(=Cc2cccc[n+]2CC)sc(=C2Sc3ccccc3N2C)c1=O` [MKT 077] + CN(C)CCNC(=O)c1cccn2c(=O)c3cc4ccccc4cc3nc12 [Bmh-21] the cell viability was greater than 100%.
Compound `CN(CCOc1ccc(Cc2sc(O)nc2O)cc1)c1ccccn1` [Rosiglitazone] + CC(C)(Cc1ccccc1)NCC(O)c1ccc(O)c(NS(C)(=O)=O)c1 [Zinterol hydrochloride] has a cell viability greater than 100%.
Work on `CN(CCOc1ccc(Cc2sc(O)nc2O)cc1)c1ccccn1` [Rosiglitazone] + c1cc(-c2cnn3cc(-c4ccc(OCCN5CCCCC5)cc4)cnc23)ccn1 [Dorsomorphin] yielded a cell viability greater than 100%.

Same assay, conditions: drug1 concentration 10 nM; drug2 concentration 50 nM; 72 h
`O=C(O)CC[N+](=O)[O-]` [3-nitropropionic acid] + CCn1c(=Cc2cccc[n+]2CC)sc(=C2Sc3ccccc3N2C)c1=O [MKT 077] showed a cell viability greater than 100%.
Work on `CCn1c(=Cc2cccc[n+]2CC)sc(=C2Sc3ccccc3N2C)c1=O` [MKT 077] + CN(C)CCNC(=O)c1cccn2c(=O)c3cc4ccccc4cc3nc12 [Bmh-21] yielded a cell viability greater than 100%.
Compound `CN(CCOc1ccc(Cc2sc(O)nc2O)cc1)c1ccccn1` [Rosiglitazone] + CC(C)(Cc1ccccc1)NCC(O)c1ccc(O)c(NS(C)(=O)=O)c1 [Zinterol hydrochloride] has a cell viability of 88.7%.
For `CN(CCOc1ccc(Cc2sc(O)nc2O)cc1)c1ccccn1` [Rosiglitazone] + c1cc(-c2cnn3cc(-c4ccc(OCCN5CCCCC5)cc4)cnc23)ccn1 [Dorsomorphin], the cell viability was greater than 100%.

Same assay, conditions: drug1 concentration 10 nM; drug2 concentration 100 nM; 72 h
In the case of `O=C(O)CC[N+](=O)[O-]` [3-nitropropionic acid] + CCn1c(=Cc2cccc[n+]2CC)sc(=C2Sc3ccccc3N2C)c1=O [MKT 077], the cell viability is reported as 85.8%.
`CCn1c(=Cc2cccc[n+]2CC)sc(=C2Sc3ccccc3N2C)c1=O` [MKT 077] + CN(C)CCNC(=O)c1cccn2c(=O)c3cc4ccccc4cc3nc12 [Bmh-21] was tested, and the cell viability was 96.7%.
`CN(CCOc1ccc(Cc2sc(O)nc2O)cc1)c1ccccn1` [Rosiglitazone] + CC(C)(Cc1ccccc1)NCC(O)c1ccc(O)c(NS(C)(=O)=O)c1 [Zinterol hydrochloride] was tested, and the cell viability was greater than 100%.
`CN(CCOc1ccc(Cc2sc(O)nc2O)cc1)c1ccccn1` [Rosiglitazone] + c1cc(-c2cnn3cc(-c4ccc(OCCN5CCCCC5)cc4)cnc23)ccn1 [Dorsomorphin] gave a cell viability greater than 100%.

Same assay, conditions: drug1 concentration 10 nM; drug2 concentration 500 nM; 72 h
Work on `O=C(O)CC[N+](=O)[O-]` [3-nitropropionic acid] + CCn1c(=Cc2cccc[n+]2CC)sc(=C2Sc3ccccc3N2C)c1=O [MKT 077] yielded a cell viability of 84.2%.
For `CCn1c(=Cc2cccc[n+]2CC)sc(=C2Sc3ccccc3N2C)c1=O` [MKT 077] + CN(C)CCNC(=O)c1cccn2c(=O)c3cc4ccccc4cc3nc12 [Bmh-21], the cell viability was 59.5%.
In the case of `CN(CCOc1ccc(Cc2sc(O)nc2O)cc1)c1ccccn1` [Rosiglitazone] + CC(C)(Cc1ccccc1)NCC(O)c1ccc(O)c(NS(C)(=O)=O)c1 [Zinterol hydrochloride], the cell viability is reported as greater than 100%.
Compound `CN(CCOc1ccc(Cc2sc(O)nc2O)cc1)c1ccccn1` [Rosiglitazone] + c1cc(-c2cnn3cc(-c4ccc(OCCN5CCCCC5)cc4)cnc23)ccn1 [Dorsomorphin] has a cell viability of 94.2%.

Same assay, conditions: drug1 concentration 10 nM; drug2 concentration 1000 nM; 72 h
In the case of `O=C(O)CC[N+](=O)[O-]` [3-nitropropionic acid] + CCn1c(=Cc2cccc[n+]2CC)sc(=C2Sc3ccccc3N2C)c1=O [MKT 077], the cell viability is reported as greater than 100%.
`CCn1c(=Cc2cccc[n+]2CC)sc(=C2Sc3ccccc3N2C)c1=O` [MKT 077] + CN(C)CCNC(=O)c1cccn2c(=O)c3cc4ccccc4cc3nc12 [Bmh-21] gave a cell viability of 28.5%.
`CN(CCOc1ccc(Cc2sc(O)nc2O)cc1)c1ccccn1` [Rosiglitazone] + CC(C)(Cc1ccccc1)NCC(O)c1ccc(O)c(NS(C)(=O)=O)c1 [Zinterol hydrochloride] was tested, and the cell viability was greater than 100%.
`CN(CCOc1ccc(Cc2sc(O)nc2O)cc1)c1ccccn1` [Rosiglitazone] + c1cc(-c2cnn3cc(-c4ccc(OCCN5CCCCC5)cc4)cnc23)ccn1 [Dorsomorphin] showed a cell viability of 62.5%.

Same assay, conditions: drug1 concentration 10 nM; drug2 concentration 5000 nM; 72 h
Compound `O=C(O)CC[N+](=O)[O-]` [3-nitropropionic acid] + CCn1c(=Cc2cccc[n+]2CC)sc(=C2Sc3ccccc3N2C)c1=O [MKT 077] has a cell viability of 72%.
Work on `CCn1c(=Cc2cccc[n+]2CC)sc(=C2Sc3ccccc3N2C)c1=O` [MKT 077] + CN(C)CCNC(=O)c1cccn2c(=O)c3cc4ccccc4cc3nc12 [Bmh-21] yielded a cell viability of 1.2%.
With `CN(CCOc1ccc(Cc2sc(O)nc2O)cc1)c1ccccn1` [Rosiglitazone] + CC(C)(Cc1ccccc1)NCC(O)c1ccc(O)c(NS(C)(=O)=O)c1 [Zinterol hydrochloride] the cell viability was 90.4%.
`CN(CCOc1ccc(Cc2sc(O)nc2O)cc1)c1ccccn1` [Rosiglitazone] + c1cc(-c2cnn3cc(-c4ccc(OCCN5CCCCC5)cc4)cnc23)ccn1 [Dorsomorphin] was tested, and the cell viability was 99.8%.

Same assay, conditions: drug1 concentration 50 nM; drug2 concentration 5 nM; 72 h
With `O=C(O)CC[N+](=O)[O-]` [3-nitropropionic acid] + CCn1c(=Cc2cccc[n+]2CC)sc(=C2Sc3ccccc3N2C)c1=O [MKT 077] the cell viability was 88.7%.
`CCn1c(=Cc2cccc[n+]2CC)sc(=C2Sc3ccccc3N2C)c1=O` [MKT 077] + CN(C)CCNC(=O)c1cccn2c(=O)c3cc4ccccc4cc3nc12 [Bmh-21] was tested, and the cell viability was greater than 100%.
Compound `CN(CCOc1ccc(Cc2sc(O)nc2O)cc1)c1ccccn1` [Rosiglitazone] + CC(C)(Cc1ccccc1)NCC(O)c1ccc(O)c(NS(C)(=O)=O)c1 [Zinterol hydrochloride] has a cell viability greater than 100%.
